Tested on: ob/ob mouse
Test: Leptin administration for four weeks in ob/ob mouse, bone measured by peripheral quantitative computerized tomography
Assay type: in vivo
Text: Administration of leptin for four weeks increased femur length by 6% and increased cortical bone volumetric content by 18%, as determined by peripheral quantitative computerized tomography.

[1] = peripheral quantitative computerized tomography

leptin: a product of the obese gene, a 16 kDa protein produced by mature adipocytes and secreted in plasma
increase in femur length: 6%
bone volumetric density [1]: unchanged
increase in cortical bone volumetric content [1]: 18%
